Laboratory results: PubChem BioAssay (NCI)
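Where inhibition never reached the appropriate level, the endpoint shown equals the highest concentration tested. Otherwise, values were interpolated linearly from a five-concentration, 48-hour dose response in 96-well plates. GI50: concentration for 50% inhibition of growth. The concentration for full growth arrest is given as TGI.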

Assays:
Assay in all cases: NCI anticancer screen, dose series, 48 h
786-0 renal = tested on: 786-0 renal
A498 renal = tested on: A498 renal
A549 NSCLC = tested on: A549 NSCLC
ACHN renal = tested on: ACHN renal
BT-549 breast = tested on: BT-549 breast
CAKI-1 renal = tested on: CAKI-1 renal
CCRF-CEM leukemia = tested on: CCRF-CEM leukemia
COLO 205 colon = tested on: COLO 205 colon
DU-145 prostate = tested on: DU-145 prostate
HCC-2998 colon = tested on: HCC-2998 colon
HCT-116 colon = tested on: HCT-116 colon
HCT-15 colon = tested on: HCT-15 colon
HL-60(TB) leukemia = tested on: HL-60(TB) leukemia
HOP-62 NSCLC = tested on: HOP-62 NSCLC
HOP-92 NSCLC = tested on: HOP-92 NSCLC
HS 578T breast = tested on: HS 578T breast
HT29 colon = tested on: HT29 colon
K-562 leukemia = tested on: K-562 leukemia
KM12 colon = tested on: KM12 colon
LOX IMVI melanoma = tested on: LOX IMVI melanoma
M14 melanoma = tested on: M14 melanoma
MALME-3M melanoma = tested on: MALME-3M melanoma
MCF7 breast = tested on: MCF7 breast
MDA-MB-231 breast = tested on: MDA-MB-231 breast
MDA-MB-435 = tested on: MDA-MB-435
MOLT-4 leukemia = tested on: MOLT-4 leukemia
NCI-H226 lung = tested on: NCI-H226 lung
NCI-H23 lung = tested on: NCI-H23 lung
NCI-H460 lung = tested on: NCI-H460 lung
NCI-H522 lung = tested on: NCI-H522 lung
NCI/ADR-RES ovarian = tested on: NCI/ADR-RES ovarian
OVCAR-4 ovarian = tested on: OVCAR-4 ovarian
OVCAR-5 ovarian = tested on: OVCAR-5 ovarian
PC-3 prostate = tested on: PC-3 prostate
RPMI-8226 leukemia = tested on: RPMI-8226 leukemia
RXF 393 renal = tested on: RXF 393 renal
SF-268 CNS = tested on: SF-268 CNS
SF-295 CNS = tested on: SF-295 CNS
SF-539 CNS = tested on: SF-539 CNS
SK-MEL-2 melanoma = tested on: SK-MEL-2 melanoma
SK-MEL-28 melanoma = tested on: SK-MEL-28 melanoma
SK-MEL-5 melanoma = tested on: SK-MEL-5 melanoma
SK-OV-3 ovarian = tested on: SK-OV-3 ovarian
SN12C renal = tested on: SN12C renal
SNB-19 CNS = tested on: SNB-19 CNS
SNB-75 CNS = tested on: SNB-75 CNS
SR leukemia = tested on: SR leukemia
SW-620 colon = tested on: SW-620 colon
T-47D breast = tested on: T-47D breast
U251 CNS = tested on: U251 CNS
UACC-257 melanoma = tested on: UACC-257 melanoma
UACC-62 melanoma = tested on: UACC-62 melanoma
UO-31 renal = tested on: UO-31 renal

COc1ccc2c(c1)c(CC(=O)[Se]CCC#N)c(C)n2C(=O)c1ccc(Cl)cc1
GI50 (786-0 renal): 1.92 µM | TGI (786-0 renal): 3.47 µM | GI50 (A498 renal): 1.6 µM | TGI (A498 renal): 3.08 µM | GI50 (A549 NSCLC): 1.87 µM | TGI (A549 NSCLC): 3.86 µM | GI50 (ACHN renal): 2.93 µM | TGI (ACHN renal): 7.79 µM | GI50 (BT-549 breast): 1.71 µM | TGI (BT-549 breast): 3.35 µM | GI50 (CAKI-1 renal): 1.93 µM | TGI (CAKI-1 renal): 3.5 µM | GI50 (CCRF-CEM leukemia): 2.43 µM | TGI (CCRF-CEM leukemia): > 100 µM | GI50 (COLO 205 colon): 2.26 µM | TGI (COLO 205 colon): 4.67 µM | GI50 (DU-145 prostate): 2.26 µM | TGI (DU-145 prostate): 5.93 µM | GI50 (HCC-2998 colon): 3.61 µM | TGI (HCC-2998 colon): 12.8 µM | GI50 (HCT-116 colon): 1.74 µM | TGI (HCT-116 colon): 3.34 µM | GI50 (HCT-15 colon): 2.17 µM | TGI (HCT-15 colon): 5.27 µM | GI50 (HL-60(TB) leukemia): 1.2 µM | TGI (HL-60(TB) leukemia): 6.25 µM | GI50 (HOP-62 NSCLC): 1.77 µM | TGI (HOP-62 NSCLC): 3.46 µM | GI50 (HOP-92 NSCLC): 1.5 µM | TGI (HOP-92 NSCLC): 3.11 µM | GI50 (HS 578T breast): 2.35 µM | TGI (HS 578T breast): 8.79 µM | GI50 (HT29 colon): 2.45 µM | TGI (HT29 colon): 7.39 µM | GI50 (K-562 leukemia): 3.24 µM | TGI (K-562 leukemia): > 100 µM | GI50 (KM12 colon): 4.13 µM | TGI (KM12 colon): 31 µM | GI50 (LOX IMVI melanoma): 1.54 µM | TGI (LOX IMVI melanoma): 3.96 µM | GI50 (M14 melanoma): 1.39 µM | TGI (M14 melanoma): 3.04 µM | GI50 (MALME-3M melanoma): 1.7 µM | TGI (MALME-3M melanoma): 4.36 µM | GI50 (MCF7 breast): 2.56 µM | TGI (MCF7 breast): 9.7 µM | GI50 (MDA-MB-231 breast): 2.04 µM | TGI (MDA-MB-231 breast): 4.97 µM | GI50 (MDA-MB-435): 1.75 µM | TGI (MDA-MB-435): 3.47 µM | GI50 (MOLT-4 leukemia): 2.9 µM | TGI (MOLT-4 leukemia): > 100 µM | GI50 (NCI-H226 lung): 1.55 µM | TGI (NCI-H226 lung): 4.01 µM | GI50 (NCI-H23 lung): 2.28 µM | TGI (NCI-H23 lung): 5.86 µM | GI50 (NCI-H460 lung): 2.37 µM | TGI (NCI-H460 lung): 8.38 µM | GI50 (NCI-H522 lung): 1.84 µM | TGI (NCI-H522 lung): 3.54 µM | GI50 (NCI/ADR-RES ovarian): 2.18 µM | TGI (NCI/ADR-RES ovarian): 6.31 µM | GI50 (OVCAR-4 ovarian): 2.38 µM | TGI (OVCAR-4 ovarian): 6.94 µM | GI50 (OVCAR-5 ovarian): 2.8 µM | TGI (OVCAR-5 ovarian): 8.87 µM | GI50 (PC-3 prostate): 2.54 µM | TGI (PC-3 prostate): 7.35 µM | GI50 (RPMI-8226 leukemia): 2.51 µM | TGI (RPMI-8226 leukemia): 6.99 µM | GI50 (RXF 393 renal): 1.52 µM | TGI (RXF 393 renal): 3.17 µM | GI50 (SF-268 CNS): 2.31 µM | TGI (SF-268 CNS): 5.07 µM | GI50 (SF-295 CNS): 1.8 µM | TGI (SF-295 CNS): 3.3 µM | GI50 (SF-539 CNS): 2.02 µM | TGI (SF-539 CNS): 4.36 µM | GI50 (SK-MEL-2 melanoma): 2.39 µM | TGI (SK-MEL-2 melanoma): 5.43 µM | GI50 (SK-MEL-28 melanoma): 2.19 µM | TGI (SK-MEL-28 melanoma): 5.66 µM | GI50 (SK-MEL-5 melanoma): 2.05 µM | TGI (SK-MEL-5 melanoma): 4.18 µM | GI50 (SK-OV-3 ovarian): 3.62 µM | TGI (SK-OV-3 ovarian): 6.33 µM | GI50 (SN12C renal): 2.49 µM | TGI (SN12C renal): 6.67 µM | GI50 (SNB-19 CNS): 1.89 µM | TGI (SNB-19 CNS): 3.58 µM | GI50 (SNB-75 CNS): 1.5 µM | TGI (SNB-75 CNS): 3.72 µM | GI50 (SR leukemia): 3.78 µM | TGI (SR leukemia): > 100 µM | GI50 (SW-620 colon): 3.41 µM | TGI (SW-620 colon): 10.4 µM | GI50 (T-47D breast): 9.78 µM | TGI (T-47D breast): 38.8 µM | GI50 (U251 CNS): 1.66 µM | TGI (U251 CNS): 3.11 µM | GI50 (UACC-257 melanoma): 1.6 µM | TGI (UACC-257 melanoma): 3.46 µM | GI50 (UACC-62 melanoma): 1.94 µM | TGI (UACC-62 melanoma): 4.7 µM | GI50 (UO-31 renal): 1.73 µM | TGI (UO-31 renal): 4.2 µM
